Assay results published in US11607422B2, “Uttroside B and derivatives thereof as therapeutics for hepatocellular carcinoma” (Rajiv Gandhi Centre for Biotechnology, an Autonomous …, priority 2016, dated 2023).

Key:
[1] = tested on: MAPK pathway in HepG2 cells; test: Western blot of MAPK phosphorylation (p-JNK, p-38, p-42/44); format: cell-based, human
Protocol: FIGS. 4A-4E are images showing Uttroside B inhibits MAPK and mTOR signaling, some of the crucial survival signals in liver cancer. […] HepG2 cells were treated with Uttroside B for different time intervals (0-240 min) and the whole cell lysate was resolved on a 10% gel and immunoblotted against phospho-ERK1/2 and phospho-Akt antibodies. Taxol was used as a positive control. […] HepG2 cells were treated with Uttroside B at different time intervals and the whole cell lysate was resolved on an 8% gel and immunoblotted against phospho-mTOR (2448) and phospho-mTOR (2481) antibodies.
Western blot analysis. Approximately 0.5×10^6 cells were grown on 60 mm culture plates and exposed to drugs as indicated for the desired time. The cells were then scraped out, washed in ice cold 1× PBS and pelleted down at 13000 rpm for 2 min. […]

[2] = tested on: HepG2 cells; test: Acridine orange staining for acidic vesicular organelles; format: cell-based, human; settings: HepG2, cytotoxic concentration, 24 h
Protocol: The presence of acidic vesicles, which are characteristics of autophagosome can be analyzed using this method. Acridine orange stains the nucleus green and the acidic vesicular organellae (AVOs) as red.^32 To detect the presence of AVOs in HepG2 cells, 5×10^3 were seeded in 96 well plates, and treated with Uttroside B and incubated for 24 h. The cells were rinsed with 1× PBS twice. The treated cells were then stained with acridine orange, which was added at a final concentration of 1 μg/mL and incubated for 15 min and immediately photographed using a fluorescent microscope.
FIG. 18 is a representative image showing that Uttroside B induces acidic vacuole formation in HepG2 cells by Acridine orange staining. To further confirm the autophagic induction by Uttroside B in HepG2 cells, the cells were exposed to cytotoxic concentration of Uttroside B for a period of 24 h and stained with Acridine orange dye. AO orange stains nucleus green and acidic vesicular organelle, mainly autophagosome, bright red. It crosses into acidic compartments and becomes protonated. The protonated dye stacks and stacked acridine orange emits in the red range.

[3] = tested on: HeLa; test: MTT cell viability assay in HeLa cells; format: cell-based; settings: 72 h
Protocol: FIG. 2A is a graph comparison of IC50 of Uttroside B in a panel of cancer cells of different origin. The cancer cell lines HeLa, A375, HepG2, MDA-MB-231, HL 60, A549 and HCT116 were treated with Uttroside B as indicated, incubated for 72 h and the cell viability was assessed by MTT assay. FIG. 2B is a graph showing dose dependent effect of Uttroside B in the liver cancer cell lines and in normal immortalized hepatocytes. The liver cancer cell lines HepG2, Hep3B, SKHEP-1, Huh-7 and normal hepatocytes (Chang liver), were treated with Uttroside B incubated for 72 h and the cell viability was assessed by MTT assay. FIG. 2C is a graph comparison of IC50 of Uttroside B with sorafenib. HepG2 cells were treated with Uttroside B as indicated, incubated for 72 h, and the cell viability was assessed by MTT assay. […] The clones developed were counted and plotted as a graph. Colony containing more than four cells was counted as one clone. […]
MTT [3-(4,5-dimethylthiazole-2-yl)-2,5-diphenyltetrazolium bromide] assay is a standard colorimetric assay, suitable for analyzing proliferation, viability, and cytotoxicity. […] After overnight incubation, cells were treated with different concentrations of organic extracts (25-250 μg/ml) of S. nigrum and the isolated compound Uttroside B (250-1250 nM) for 72 h and cytotoxicity was measured. […]

For `C[C@H](CC[C@@]1(O)O[C@H]2C[C@H]3[C@@H]4CC[C@H]5C[C@@H](O[C@@H]6O[C@H](CO)[C@H](O[C@@H]7O[C@H](CO)[C@@H](O)[C@H](O[C@@H]8OC[C@@H](O)[C@H](O)[C@H]8O)[C@H]7O[C@@H]7O[C@H](CO)[C@@H](O)[C@H](O)[C@H]7O)[C@H](O)[C@H]6O)CC[C@]5(C)[C@H]4CC[C@]3(C)[C@H]2[C@@H]1C)CO[C@@H]1O[C@H](CO)[C@@H](O)[C@H](O)[C@H]1O` [Uttroside B], the “PMA-induced activation of p-JNK, p-38 and p-42/44” value [1] was “down-regulated”, the “basal activation of MAPK pathway (p-42/44, p-JNK)” value [1] was “significantly down-regulated” and the “acidic vacuole formation (Acridine orange)” value [2] was “AO positivity, a preliminary indication of increased autophagosomes was clearly visible”. It also gave an IC50 [3] of 1.5 µM.
